Structures are written as SMILES.

For orientation: IC50 means the concentration needed to halve the response being measured. High values mean a need for much substance, low ones inhibition by little substance.

For one test, the system named is MDA-MB-231 cell line. Description: Cell activity detection, CCK-8, MDA-MB-231. In kind it is cell-based. The following applies: Homo sapiens, CCK-8, 72 hours incubation. As for the experimental part: MDA-MB-231 cell line was purchased from Shanghai Cell Resource Center of the Chinese Academy of Sciences, and was performed according to the method in the kit of CCK-8. The cells in the logarithmic growth phase were collected, counted, and the cells were re-suspended in complete medium to adjust the cell concentration to a suitable concentration (determined according to cell density optimization test results), inoculated in 96-well plates, and each well was added with 100 μl of cell suspension. Cells were incubated at 37° C., in a 100% relative humidity and 5% CO2 incubator for 24 hours. The compound was diluted to the appropriate effective concentration determined with medium and the cells were added by 25 μl/well. The final concentration of the compound was diluted to from 1 μM to 0 μM graded in three-fold dilution to give 10 concentration points. The cells were incubated at 37° C., in a 100% relative humidity and 5% CO2 incubator for 72 hours. 1/10 volume of CCK-8 was added directly to the cell culture medium and incubated in a 37° C. incubator for 2-4 hours. The absorbance at 450 nm was determined on a SpectraMax M5 Microplate Reader after gentle shaking. Absorbance at 650 nm was taken as the reference. The IC50 curve fitting was performed using soft Graphpad Prism 5 and the IC50 value was calculated.

The subject of a further test is H211 cell line. Description: Cell activity detection, Alamar-Blue, H211. The test is classed as cell-based. The note with it: Homo sapiens, NCI-H211, 72 h incubation. The protocol: (§1) H211 and H187 cell lines were purchased from ATCC and tested in accordance with the Alamar-Blue test kit instructions. The drugs were dissolved in 50 mM stock solution with DMSO and stored in a freezer at −20° C. The test drug stock solution was serially diluted with DMSO graded in a ratio of 1:3. Then DMSO diluted drug was serially diluted into a drug solution in 10× final concentration with cell complete culture medium. The 96-well cell culture plate was removed from the incubator, and 10 μl of culture medium containing a series of different concentrations of drug (10× final concentration) was added to a 96-well plate, and incubated at 37° C. for 72 h in CO2 incubator. The inhibition rate was plotted using GraphPad Prism 5.0 and MATILAB software by a non-linear regression method to obtain a series of dose-response curves from which the IC50 of the test sample was obtained, Table 2.

For test [1], the target named is T1, BRD4 (BD1+BD2) bromodomain protein (Homo sapiens, UniProt O60885).
T1 construct: BRD4 (BD1+BD2) bromodomain protein; purchased Cayman
Put plainly: TR-FRET BRD4 activity assay (Cayman kit). The note with it: room temperature 2 hours. In kind it is binding. As for the experimental part:
Detection of TR-FRET BRD4 Activity:
The BRD4 activity assay was performed according to the TR-FRET method in the Cayman kit. Dilute 3×BRD TR-FRET Assay Buffer 1 with ultrapure water to 1×BRD TR-FRET Assay Buffer for further use. 1×BRD TR-FRET Assay Buffer was used to dilute Tb-labeled donor and dye-labeled acceptor in 100-fold. 5 μl of diluted Tb-labeled donor and dye-labeled acceptor were added respectively to the sample well, negative control well and positive control well. The configured 1×BRD TR-FRET Assay Buffer was used to formulate a 10% DMSO solution (excessive DMSO concentration would affect the reaction, and the final concentration of DMSO was controlled at 1%), then test compounds are diluted with 10% DMSO solution to give the compound's initial concentrations of 1 μM and 100 nM, IC50 test was started from 10 μM or 100 μM, diluted in 3-fold to give 8 or 10 concentration points. In addition to the control wells, 2 μl of the diluted test compound solution was added to the wells used, and 2 μl of the previously prepared 10% DMSO solution was added to the control wells. The BET Bromodomain Ligand and Non-acetylated Ligand 1 were respectively diluted in 40 fold with 1×BRD TR-FRET Assay Buffer. 5 μl of diluted BET Bromodomain Ligand was added to sample wells and positive control wells, and 5 μl of diluted non-acetylated ligand 1 was added into the negative control wells. 1×BRD TR-FRET Assay Buffer was used to dilute BRD4 (BD1+BD2) bromodomain protein to 6 ng/μl (18 ng/well), and 3 μl of diluted BRD4 (BD1+BD2) bromodomain protein was added to each well. The plate was sealed and mixed well. The reaction was performed at room temperature for 2 hours, and then fluorescence signals (320 nm stimulation, 665 nm, 615 nm emission) were detected with the ENVISION (Perkinelmer) instrument. The inhibition rate was calculated for each well by positive control wells and negative control wells, and average value was calculated for multiple wells. The results were plotted with Software PRISM 5.0 to fit the half inhibitory activity (IC50) for each test compound, Table 1.
(In general: Time-resolved FRET reads energy transfer from a long-lived donor to a nearby acceptor.)

The next test has as its system H187 cell line. Description: Cell activity detection, Alamar-Blue, H187. The test is classed as cell-based. The following applies: Homo sapiens, NCI-H187, 72 h incubation. The protocol: as §1

For the compound `Cc1nnn(C)c1-c1cnc2c3c4cnn(C)c4ccc3n([C@H](c3ccccc3)C3CCOCC3)c2c1` [Compound 6], the half-maximal inhibitory concentration (IC50) with MDA-MB-231 cell line was 1.6 nM; in the test on H211 cell line, 2 nM; in test [1], 1 nM; with H187 cell line it was 5.5 nM.

On to `Cc1nnn(C)c1-c1cnc2c3cc4c(cc3n([C@H](c3ccccc3)C3CCOCC3)c2c1)CN(C)C4=O` [Compound 2], for which the IC50 is 8.5 nM in the test on H211 cell line, 2.2 nM in test [1] and 19 nM with H187 cell line.

With `Cc1nnn(C)c1-c1cnc2c3c4cccnc4ccc3n([C@H](c3ccccc3)C3CCOCC3)c2c1` [Compound 12], the IC50 in the test on H211 cell line came out at 12 nM; in test [1] it was 3.2 nM; in the test on H187 cell line, 7.5 nM.

As for `Cc1nnn(C)c1-c1cnc2c3cc4cnn(C)c4cc3n([C@H](c3ccccc3)C3CCOCC3)c2c1` [Compound 5], the IC50 in the test with H211 cell line was 29.5 nM; in test [1], 3.8 nM; in the test with H187 cell line, 35 nM.

`[2H]C([2H])([2H])c1nnn(C)c1-c1cnc2c3c4cnn(C)c4ccc3n([C@H](c3ccccc3)C3CCOCC3)c2c1` [Compound 13]: the IC50 worked out at 1.8 nM in the test on MDA-MB-231 cell line, 2 nM in the test on H211 cell line, 1 nM in test [1] and 5.5 nM in the test with H187 cell line.

Consider `Cc1nnn(C)c1-c1cnc2c3cc4c(cnn4C)cc3n([C@H](c3ccccc3)C3CCOCC3)c2c1` [Compound 4], for which the 50% inhibitory concentration (IC50) with H211 cell line came to 11.2 nM; in test [1], 4.6 nM; in the test on H187 cell line it was 37 nM.

As to `[2H]C([2H])([2H])c1nnn(C)c1-c1cnc2c3c4cn[nH]c4ccc3n([C@H](c3ccccc3)C3CCOCC3)c2c1` [Compound 14], the IC50 amounted to 3.5 nM with MDA-MB-231 cell line, 4 nM in the test with H211 cell line, 1 nM in test [1] and 5.5 nM with H187 cell line.

In the case of `Cc1nnn(C)c1-c1cnc2c3c4cc[nH]c4ccc3n([C@H](c3ccccc3)C3CCOCC3)c2c1` [Compound 10], the half-inhibitory concentration (IC50) with MDA-MB-231 cell line came out at 8.1 nM; in the test on H211 cell line, 32 nM; in test [1], 1.5 nM; with H187 cell line, 8.5 nM.

On to `Cc1nnn(C)c1-c1cnc2c3c4c(ccc3n([C@H](c3ccccc3)C3CCOCC3)c2c1)cnn4C` [Compound 7], for which the IC50 is 4.6 nM in the test on MDA-MB-231 cell line, 3.5 nM in the test with H211 cell line, 5.2 nM in test [1] and 6.5 nM in the test on H187 cell line.

Turning to `Cc1nnn(C)c1-c1cnc2c3c4cnn(C)c4c(F)cc3n([C@H](c3ccccc3)C3CCOCC3)c2c1` [Compound 8], the half-inhibitory concentration (IC50) was determined as 3.2 nM in the test on MDA-MB-231 cell line, 4.2 nM in the test on H211 cell line, 2.6 nM in test [1] and 6.5 nM in the test on H187 cell line.

Take `Cc1nnn(C)c1-c1cnc2c3c4ccn(C)c4ccc3n([C@H](c3ccccc3)C3CCOCC3)c2c1` [Compound 9]: the IC50 with H211 cell line stood at 6.7 nM; in test [1] it was 3.5 nM; in the test with H187 cell line it was 7 nM.

As to `Cc1nnn(C)c1-c1cnc2c3c4c(ccc3n([C@H](c3ccccc3)C3CCOCC3)c2c1)C(=O)N(C)C4` [Compound 3], the results for the concentration for half-maximal inhibition (IC50) (with H211 cell line; in test [1]; in the test with H187 cell line) were 5.2 nM, 1.9 nM and 35 nM, respectively.

As to `Cc1nnn(C)c1-c1cnc2c3c4cn[nH]c4ccc3n([C@H](c3ccccc3)C3CCOCC3)c2c1` [Compound 11], the IC50 in the test on MDA-MB-231 cell line stood at 3.7 nM; with H211 cell line it was 4.2 nM; in test [1], 1 nM; with H187 cell line, 5.5 nM.

Take `Cc1nnn(C)c1-c1cnc2c3cc4c(cc3n([C@H](c3ccccc3)C3CCOCC3)c2c1)C(=O)N(C)C4` [Compound 1]: the IC50 in the test on H211 cell line is 7.2 nM; in test [1] it was 3.6 nM; in the test with H187 cell line it was 21 nM.
